Reference: US10610564B2, “IRGM and precision autophagy controls for antimicrobial and inflammatory disease states and methods of detection of autophagy” (STC.UNM, priority 2015, dated 2020)

B1: IFN-γ: interferon-gamma (PeproTech), precision autophagy modulator (protein, UniProt P01579 24-161, looked up)
Interferon gamma: QDPYVKEAENLKKYFNAGHSDVADNGTLFLGILKNWKEESDRKIMQSQIVSFYFKLFKNFKDDQSIQKSVETIKEDMNVKFFNSNKKKRDDFEKLTNYSVTDLNVQRKAIHELIQVMAELSPAAKTGKRKRSQMLFRG

Tested on: primary human macrophages
Assay: High content analysis of LC3 puncta in primary human macrophages
Format: cell-based
Conditions: IFN-γ 4 h
Experimental: (§1) (A and B) High content image analysis of LC3 puncta in (A) THP-1 cells or (B) human MDM cells treated with IFN-γ for 4 h. HC and mask overlays are as in FIG. 1. (C) Screen data from FIG. 1B showing average±range. (D) Knockdown efficacy of TRIMs were determined by RT-PCR. (E and F) THP-1 cells were treated with (E) escalating doses of IFN-γ for 4 h or (F) 1,000 U/ml of IFN-γ for indicated times, and TRIM20 mRNA levels were determined by quantitative RT-PCR. Values are standardized to (E) no IFN-γ control or (F) 0 h time point. (G) THP-1 cells were subjected to TRIM20 or scrambled siRNA, treated with IFN-γ for 4 h, and HC analysis performed. (H) Knockdown of TRIM20 mRNA levels was examined by quantitative RT-PCR. Values are standardized to control (Scr, scrambled; no IFN-γ). (I) LC3-II conversion in HEK293 cells transfected with GFP-TRIM20 (T20) or GFP. Data, means±SE, n≥3 experiments, except panel (C). Scale bars, 5 μm. *P<0.05, ^†P≥0.05 (t test in (B) or ANOVA (other panels)).
High content imaging and analysis was performed using a Cellomics V^TI HCS scanner and iDEV software (ThermoScientific). […] Epifluorescnece images were machine analyzed using present scanning parameters and object mask definitions. Hoechst 33342 staining were used to automatically detect cellular outlines based on background staining of the cytoplasm, and the mean count of LC3 puncta per cell was determined.

| Molecule | autophagy induction (LC3 puncta per cell) |
| --- | --- |
| B1 | induced autophagy |

Tested on: THP-1 cells
Assay: High content analysis of LC3 puncta in THP-1 cells (TRIM family screen conditions)
Format: cell-based, human
Conditions: IFN-γ 4 h
Experimental: (A) THP-1 cells were subjected to TRIM knockdown, treated with 1,000 U/mL IFN-γ for 4 h, and high content (HC) analysis was performed using a Cellomics HCS scanner (epifluorescence) and iDEV software. HC (magenta, endogenous LC3B immunofluorescence [IF]; blue, nuclei stained with Hoechst). Mask overlay, software-defined objects (primary objects, cell outlines; internal secondary objects, LC3 puncta). (B) Average count of LC3 puncta per cell from cells treated as in (A) (Data from two 96-well plates with identical siRNA arrangements; the corresponding data are shown in Supplementary FIG. 1C). Encircled are INF-γ-treated wells (right) and wells with vehicle controls (bottom left). TRIM knockdowns that reduced LC3 puncta readout in both two experiments by 3 SDs (horizontal dot lines) from the average of IFN-γ-treated controls (horizontal solid line) are indicated by corresponding TRIM numbers (open circle). TRIMs that were chosen in follow-up experiments in FIG. 1C are also indicated with number. (C) Similar to (B), except that THP-1 cells were subjected to specific TRIM or scrambled (Scr; control) knockdown, and were analyzed in more than quadruplicate manner. […] (E) THP-1 cells were treated with TRIM20 or Scr siRNAs, treated with or without IFN-γ for 4 h in the presence of bafilomycin A1, and LC3-II conversion was determined by immunoblots. […]

| Molecule | autophagy induction (LC3 puncta per cell) |
| --- | --- |
| B1 | induced autophagy |

Tested on: TRIM21
Assay: TRIM21 mRNA levels by quantitative RT-PCR in THP-1 cells
Format: cell-based, human
Conditions: 1,000 U/ml IFN-γ for indicated times
Experimental: (A) THP-1 cells were treated with 1,000 U/ml of IFN-γ for indicated times, and TRIM21 mRNA levels were determined by quantitative RT-PCR. (B) Co-immunoprecipitation analysis of GFP-TRIM20 with Flag-TRIM21 in HEK293 cells extracts. (C) Knockdown efficacy of TRIM21 level was examined by immunoblotting. (D) Levels of dimerized IRF3 were assessed by native PAGE from THP-1 cells subjected to TRIM21 or control knockdown, untreated with IFN-γ, and transfected with herring testis DNA (HT-DNA). (E and F) THP-1 cells subjected to TRIM21 or control knockdown were infected with a single-round infection HIV1 virus in the presence of 200 U/mL IFN-γ for 20 h, and (E) the levels of dimerized IRF3 or (F) mRNA levels of IFN-β were determined. […]
(§2) Detection of IRF3 dimerization was performed by native polyacrylamide gel electrophoresis (PAGE) as previously described (Takahasi et al., 2003). Quantitative RT-PCR was performed as previously described (Kimura et al., 2013) using the following primer sets: ULK1, ([…], […]); BECN1, ([…], […]); ACTIN, ([…], […]); TRIM1, ([…], […]); TRIM5, ([…], […]); TRIM8, ([…], […]); TRIM16, ([…], […]); TRIM20, ([…], […]); TRIM21, ([…], […]); TRIM22, ([…], […]); TRIM28, ([…], […]); TRIM56, ([…], […]); and TRIM65, ([…], […]). […]

| Molecule | TRIM21 expression |
| --- | --- |
| B1 | transiently induced |

Tested on: autophagy
Assay: Autophagy assays identifying autophagy modulators
Format: cell-based
Conditions: not given

| Molecule | activity as autophagy modulator |
| --- | --- |
| CCCCc1cc2ccccc2c(OCCN(C)C)n1 [dimethisoquin] | agonists or inducers of autophagy |
| CNCCC=C1c2ccccc2C=Cc2ccccc21 [norcyclobenzaprine] | agonists or inducers of autophagy |
| CNCCC=C1c2ccccc2CCc2ccccc21 [nortriptyline] | agonists or inducers of autophagy |
| CC12CC3CC(C)(C1)CC(N)(C3)C2 [memantine] | agonists or inducers of autophagy |
| CNCC(O)c1ccc(OC(=O)C(C)(C)C)c(OC(=O)C(C)(C)C)c1 (stereo not shown) [dipivefrin] | agonists or inducers of autophagy |
| CC[N+](C)(CC)CCC[n+]1c(-c2ccccc2)c2cc(N)ccc2c2ccc(N)cc21.[I-].[I-] [propidium iodide] | agonists or inducers of autophagy |
| CN(Cc1cc(Br)cc(Br)c1N)C1CCCCC1 [bromhexine] | agonists or inducers of autophagy |
| CC(C)COCC(CN(Cc1ccccc1)c1ccccc1)N1CCCC1 (stereo not shown) [bepridil] | agonists or inducers of autophagy |
| CN1CCCC(CC2c3ccccc3Sc3ccccc32)C1 (stereo not shown) [metixene] | agonists or inducers of autophagy |
| CCN(CC)CCOc1ccc(C(=C(Cl)c2ccccc2)c2ccccc2)cc1.O=C(O)CC(O)(CC(=O)O)C(=O)O [clomiphene citrate (Z,E)] | agonists or inducers of autophagy |
| N#Cc1c(Cl)c(Cl)c(Cl)c(C#N)c1Cl [tetrachlorisophthalonitrile] | antagonists or inhibitors of autophagy |
| CC(=O)[O-].[Hg+][c]1ccccc1 [phenylmercuric acetate] | antagonists or inhibitors of autophagy |
| COC(=O)Nc1nc2cc(C(=O)c3ccc(F)cc3)ccc2[nH]1 [flubendazole] | agonists or inducers of autophagy |
| O=C(Nc1ccccc1)OCC(CN1CCCCC1)OC(=O)Nc1ccccc1 (stereo not shown) [diperodon] | agonists or inducers of autophagy |
| COCCCC/C(=N\OCCN)c1ccc(C(F)(F)F)cc1 [fluvoxamine] | agonists or inducers of autophagy |

Tested on: TRIM20
Assay: TRIM20 mRNA levels by quantitative RT-PCR in THP-1 cells
Format: cell-based, human
Conditions: escalating doses for 4 h or 1,000 U/ml for indicated times
Experimental: as §1, with “Data, means±SE, n≥3 experiments, except panel (C). Scale bars, 5 μm. *P<0.05, ^†P≥0.05 (t test in (B) or ANOVA (other panels)).” left out
as §2

| Molecule | TRIM20 expression |
| --- | --- |
| B1 | responsive |
